Structures are written as SMILES.

Tested on in the first assay: not listed separately
Description: Selectivity ratio of EC50 for antiviral activity against DRV-resistant HIV1 mutant to EC50 for antiviral activity against wild-type HIV1 NL4-3 infected in human SUP-T1 cells assessed as inhibition of viral replication. Format: functional, Human immunodeficiency virus 1.
Details: not given
`COc1ccc(S(=O)(=O)N(CC(C)C)C[C@@H](O)[C@H](Cc2ccccc2)NC(=O)c2coc3cc(O)c(O)cc23)cn1`: the “Ratio EC50” value amounted to 1.6.

On to `COc1ccc(S(=O)(=O)N(CC(C)C)C[C@@H](O)[C@H](Cc2ccccc2)NC(=O)c2cc3cc(O)c(O)cc3o2)cn1`, for which the “Ratio EC50” value is given as 4.1.

For `COc1ccc(S(=O)(=O)N(CC(C)C)C[C@@H](O)[C@H](Cc2ccccc2)NC(=O)c2cc3cc(O)c(O)cc3[nH]2)cn1`, the “Ratio EC50” value amounted to 12.9.

Regarding `COc1ccc(S(=O)(=O)N(CC(C)C)C[C@@H](O)[C@H](Cc2ccccc2)NC(=O)c2cc3cc(O)c(O)cc3o2)cc1`, the “Ratio EC50” value stood at 3.8.

Another assay relates to Human immunodeficiency virus 1. Description: microbe, parasite or virus in culture. To be noted: Human immunodeficiency virus 1, NL4-3, SUP-T1, 48 h.
Description: Antiviral activity against VSV-G pseudotyped HIV1 NL4-3 infected in human SUP-T1 cells assessed as inhibition of early stage viral replication incubated for 48 hrs by luciferase based analysis
In general, EC50 refers to the concentration that produces a half-maximal response. `COc1ccc(S(=O)(=O)N(CC(C)C)C[C@@H](O)[C@H](Cc2ccccc2)NC(=O)c2coc3cc(O)c(O)cc23)cn1` returned an EC50 of 22.7 µM.

In turn, `COc1ccc(S(=O)(=O)N(CC(C)C)C[C@@H](O)[C@H](Cc2ccccc2)NC(=O)c2cc3cc(O)c(O)cc3o2)cn1` came in with an EC50 of 14.5 µM.

Take `COc1ccc(S(=O)(=O)N(CC(C)C)C[C@@H](O)[C@H](Cc2ccccc2)NC(=O)c2cc3cc(O)c(O)cc3[nH]2)cn1`: a half-maximal response (EC50) required 10.5 µM.

With `COc1ccc(S(=O)(=O)N(CC(C)C)C[C@@H](O)[C@H](Cc2ccccc2)NC(=O)c2cc3cc(O)c(O)cc3o2)cc1`, the concentration giving a half-maximal response (EC50) was 9.33 µM.

For another assay, the target named is Human immunodeficiency virus type 1 reverse transcriptase (Human immunodeficiency virus 1, UniProt Q72547). Put plainly: Inhibition of HIV-1 NL4-3 reverse transcriptase by RT-PCR analysis.
Details: not given
Usually IC50 stands for the midpoint of a concentration-inhibition curve. In turn, `COc1ccc(S(=O)(=O)N(CC(C)C)C[C@@H](O)[C@H](Cc2ccccc2)NC(=O)c2cc3ccccc3o2)cc1` yielded an IC50 of 65.5 µM.

`COc1ccc(S(=O)(=O)N(CC(C)C)C[C@@H](O)[C@H](Cc2ccccc2)NC(=O)c2coc3cc(O)c(O)cc23)cn1` yielded an IC50 of 7.5 µM.

Compound `COc1ccc(S(=O)(=O)N(CC(C)C)C[C@@H](O)[C@H](Cc2ccccc2)NC(=O)c2cc3cc(O)c(O)cc3o2)cn1` had an IC50 of 5.82 µM.

Compound `COc1ccc(S(=O)(=O)N(CC(C)C)C[C@@H](O)[C@H](Cc2ccccc2)NC(=O)c2cc3ccc(O)cc3[nH]2)cc1` yielded an IC50 of 164 µM.

The compound `COc1ccc(S(=O)(=O)N(CC(C)C)C[C@@H](O)[C@H](Cc2ccccc2)NC(=O)c2cc3cc(O)ccc3o2)cn1` yielded an IC50 of 118 µM.

Regarding `COc1ccc(S(=O)(=O)N(CC(C)C)C[C@@H](O)[C@H](Cc2ccccc2)NC(=O)c2coc3cc(O)ccc23)cc1`, 60.3 µM corresponded to half-maximal inhibition (IC50).

As to `COc1ccc(S(=O)(=O)N(CC(C)C)C[C@@H](O)[C@H](Cc2ccccc2)NC(=O)c2coc3ccc(O)cc23)cc1`, the IC50 amounted to 82.7 µM.

Compound `COc1ccc(S(=O)(=O)N(CC(C)C)C[C@@H](O)[C@H](Cc2ccccc2)NC(=O)c2cc3ccc(O)cc3o2)cn1` had an IC50 of 223 µM.

With `COc1ccc(S(=O)(=O)N(CC(C)C)C[C@@H](O)[C@H](Cc2ccccc2)NC(=O)c2cc3cc(O)c(O)cc3[nH]2)cn1`, the IC50 turned out to be 1.52 µM.

`CC(C)CN(C[C@@H](O)[C@H](Cc1ccccc1)NC(=O)c1cc2cc(O)ccc2[nH]1)S(=O)(=O)c1ccc(N)cc1`: the IC50 was 102 µM.

`CC(C)CN(C[C@@H](O)[C@H](Cc1ccccc1)NC(=O)c1cc2ccc(O)cc2[nH]1)S(=O)(=O)c1ccc(N)cc1` had an IC50 of 178 µM.

Consider `COc1ccc(S(=O)(=O)N(CC(C)C)C[C@@H](O)[C@H](Cc2ccccc2)NC(=O)c2cc3cc(O)c(O)cc3o2)cc1`, for which the concentration for half-maximal inhibition (IC50) was found to be 2.35 µM.

In turn, `COc1ccc(S(=O)(=O)N(CC(C)C)C[C@@H](O)[C@H](Cc2ccccc2)NC(=O)c2cc3cc(O)c(O)cc3[nH]2)cc1` showed an IC50 of 96.5 µM.

A further assay concerns the target Human immunodeficiency virus type 1 reverse transcriptase (Human immunodeficiency virus 1) (UniProt Q72547). Description: Inhibition of HIV-1 NL4-3 reverse transcriptase at 100 uM by RT-PCR analysis relative to control.
Details: not given
Usually inhibition stands for the change of the read-out against control, counted positive when it falls. Read a high inhibition as strong suppression. On to `COc1ccc(S(=O)(=O)N(CC(C)C)C[C@@H](O)[C@H](Cc2ccccc2)NC(=O)c2cc3ccc(N)cc3o2)cc1`, for which the inhibition was less than 20%.

The next assay concerns Human immunodeficiency virus 1. Description: Antiviral activity against VSV-G pseudotyped HIV1 NL4-3 infected in HEK293T cells assessed as inhibition of late stage viral replication pre-infected with cells for 5 hrs followed by compound treatment for 48 hrs and further infected with human SupT1 cells for 48 hrs by luciferase based analysis. Format: functional, organism-based. The following applies: Human immunodeficiency virus 1, NL4-3, HEK-293T.
For the compound `COc1ccc(S(=O)(=O)N(CC(C)C)C[C@@H](O)[C@H](Cc2ccccc2)NC(=O)c2coc3cc(O)c(O)cc23)cn1`, the EC50 was 1.76 µM.

For `COc1ccc(S(=O)(=O)N(CC(C)C)C[C@@H](O)[C@H](Cc2ccccc2)NC(=O)c2cc3cc(O)c(O)cc3o2)cn1`, the EC50 is 4.2 µM.

As for `COc1ccc(S(=O)(=O)N(CC(C)C)C[C@@H](O)[C@H](Cc2ccccc2)NC(=O)c2cc3cc(O)c(O)cc3[nH]2)cn1`, the concentration for a half-maximal effect (EC50) was determined as 0.17 µM.

On to `COc1ccc(S(=O)(=O)N(CC(C)C)C[C@@H](O)[C@H](Cc2ccccc2)NC(=O)c2cc3cc(O)c(O)cc3o2)cc1`, for which the 50% effective concentration (EC50) stood at 4.4 µM.

The target in a further assay is Human immunodeficiency virus type 1 protease (Human immunodeficiency virus 1, UniProt Q72874). Description: Inhibition of HIV-1 protease expressed in Escherichia coli using Arg-Glu-(EDANS)-Ser-Gln-Asn-Tyr-Pro-Ile-Val-Gln-Lys-([…])-Arg as substrate preincubated with compound for 20 to 30 mins followed by substrate addition and measured after 10 mins by FRET analysis.
Details: not given
With `COc1ccc(S(=O)(=O)N(CC(C)C)C[C@@H](O)[C@H](Cc2ccccc2)NC(=O)c2cc3ccccc3o2)cc1`, the IC50 is 9.21 µM.

In the case of `COc1ccc(S(=O)(=O)N(CC(C)C)C[C@@H](O)[C@H](Cc2ccccc2)NC(=O)c2coc3cc(O)c(O)cc23)cn1`, the IC50 is 1.36 µM.

For `COc1ccc(S(=O)(=O)N(CC(C)C)C[C@@H](O)[C@H](Cc2ccccc2)NC(=O)c2cc3cc(O)c(O)cc3o2)cn1`, the concentration for half-maximal inhibition (IC50) amounted to 2.31 µM.

For `COc1ccc(S(=O)(=O)N(CC(C)C)C[C@@H](O)[C@H](Cc2ccccc2)NC(=O)c2cc3ccc(N)cc3o2)cc1`, the IC50 was 3.73 µM.

As for `COc1ccc(S(=O)(=O)N(CC(C)C)C[C@@H](O)[C@H](Cc2ccccc2)NC(=O)c2cc3ccc(O)cc3[nH]2)cc1`, the IC50 came out at 0.5 µM.

As to `COc1ccc(S(=O)(=O)N(CC(C)C)C[C@@H](O)[C@H](Cc2ccccc2)NC(=O)c2cc3cc(O)ccc3o2)cn1`, the IC50 is 1.98 µM.

`COc1ccc(S(=O)(=O)N(CC(C)C)C[C@@H](O)[C@H](Cc2ccccc2)NC(=O)c2coc3cc(O)ccc23)cc1`: the IC50 came out at 1.56 µM.

`COc1ccc(S(=O)(=O)N(CC(C)C)C[C@@H](O)[C@H](Cc2ccccc2)NC(=O)c2coc3ccc(O)cc23)cc1`: the half-inhibitory concentration (IC50) is 2.05 µM.

On to `COc1ccc(S(=O)(=O)N(CC(C)C)C[C@@H](O)[C@H](Cc2ccccc2)NC(=O)c2cc3ccc(O)cc3o2)cn1`, for which the IC50 stood at 2.84 µM.

For the compound `COc1ccc(S(=O)(=O)N(CC(C)C)C[C@@H](O)[C@H](Cc2ccccc2)NC(=O)c2cc3cc(O)c(O)cc3[nH]2)cn1`, the IC50 was found to be 0.84 µM.

For the compound `CC(C)CN(C[C@@H](O)[C@H](Cc1ccccc1)NC(=O)c1cc2cc(O)ccc2[nH]1)S(=O)(=O)c1ccc(N)cc1`, the half-maximal inhibitory concentration (IC50) stood at 0.86 µM.

For `CC(C)CN(C[C@@H](O)[C@H](Cc1ccccc1)NC(=O)c1cc2ccc(O)cc2[nH]1)S(=O)(=O)c1ccc(N)cc1`, the concentration for half-maximal inhibition (IC50) was 0.55 µM.

With `COc1ccc(S(=O)(=O)N(CC(C)C)C[C@@H](O)[C@H](Cc2ccccc2)NC(=O)c2cc3cc(O)c(O)cc3o2)cc1`, the IC50 came to 1.93 µM.

On to `COc1ccc(S(=O)(=O)N(CC(C)C)C[C@@H](O)[C@H](Cc2ccccc2)NC(=O)c2cc3cc(O)c(O)cc3[nH]2)cc1`, for which the IC50 came out at 1.07 µM.

Tested on in another assay: not listed separately
Description: Selectivity ratio of EC50 for antiviral activity against VSV-G pseudotyped HIV1 NL4-3 infected in human SUP-T1 cells assessed as inhibition of early stage viral replication to EC50 for antiviral activity against VSV-G pseudotyped HIV1 NL4-3 infected in HEK293T cells assessed as inhibition of late stage viral replication. The class given is functional, Human immunodeficiency virus 1.
Details: not given
`COc1ccc(S(=O)(=O)N(CC(C)C)C[C@@H](O)[C@H](Cc2ccccc2)NC(=O)c2coc3cc(O)c(O)cc23)cn1`: the “Ratio EC50” value turned out to be 12.88.

In the case of `COc1ccc(S(=O)(=O)N(CC(C)C)C[C@@H](O)[C@H](Cc2ccccc2)NC(=O)c2cc3cc(O)c(O)cc3o2)cn1`, the “Ratio EC50” value is given as 3.45.

Turning to `COc1ccc(S(=O)(=O)N(CC(C)C)C[C@@H](O)[C@H](Cc2ccccc2)NC(=O)c2cc3cc(O)c(O)cc3[nH]2)cn1`, the “Ratio EC50” value came to 61.59.

`COc1ccc(S(=O)(=O)N(CC(C)C)C[C@@H](O)[C@H](Cc2ccccc2)NC(=O)c2cc3cc(O)c(O)cc3o2)cc1`: the “Ratio EC50” value is 2.12.

A further assay deals with Human immunodeficiency virus 1. Description: Antiviral activity against wild-type HIV1 NL4-3 infected in human SUP-T1 cells assessed as inhibition of viral replication pre-infected with compound for 1 day followed by compound washout and replaced with fresh medium for 48 hrs and further infected with human TZM-bl cells by lucifrease based analysis. Format: functional, organism-based. To be noted: Human immunodeficiency virus 1, NL4-3, SUP-T1.
As to `COc1ccc(S(=O)(=O)N(CC(C)C)C[C@@H](O)[C@H](Cc2ccccc2)NC(=O)c2coc3cc(O)c(O)cc23)cn1`, the EC50 came to 1.76 µM.

Consider `COc1ccc(S(=O)(=O)N(CC(C)C)C[C@@H](O)[C@H](Cc2ccccc2)NC(=O)c2cc3cc(O)c(O)cc3o2)cn1`, for which the EC50 turned out to be 4.2 µM.

For `COc1ccc(S(=O)(=O)N(CC(C)C)C[C@@H](O)[C@H](Cc2ccccc2)NC(=O)c2cc3cc(O)c(O)cc3[nH]2)cn1`, the EC50 was 0.17 µM.

For the compound `COc1ccc(S(=O)(=O)N(CC(C)C)C[C@@H](O)[C@H](Cc2ccccc2)NC(=O)c2cc3cc(O)c(O)cc3o2)cc1`, the EC50 turned out to be 4.4 µM.

The test system of the next assay is Human immunodeficiency virus 1. Put plainly: microbe, parasite or virus in culture.
Details: not given
As to `COc1ccc(S(=O)(=O)N(CC(C)C)C[C@@H](O)[C@H](Cc2ccccc2)NC(=O)c2coc3cc(O)c(O)cc23)cn1`, the EC50 was 2.83 µM.

Regarding `COc1ccc(S(=O)(=O)N(CC(C)C)C[C@@H](O)[C@H](Cc2ccccc2)NC(=O)c2cc3cc(O)c(O)cc3o2)cn1`, the EC50 amounted to 17 µM.

The compound `COc1ccc(S(=O)(=O)N(CC(C)C)C[C@@H](O)[C@H](Cc2ccccc2)NC(=O)c2cc3cc(O)c(O)cc3[nH]2)cn1` yielded a 50% effective concentration (EC50) of 2.19 µM.

As to `COc1ccc(S(=O)(=O)N(CC(C)C)C[C@@H](O)[C@H](Cc2ccccc2)NC(=O)c2cc3cc(O)c(O)cc3o2)cc1`, the EC50 is 16.6 µM.
